Data as given in US12435089B2, “3-oxadiazolyl substituted pyrazolo[1,5,a]pyrimidines for ROS1, NTRK, and ALK mediated diseases” (TYK MEDICINES, INC., priority 2019, dated 2025).
Where two headings read alike, the source gives them in different places.

Assays:
[1] = target: TRKA (G677C) (Homo sapiens, UniProt P04629, G667C); experiment: Radio-tagged HotSpot kinase assay, TRKA (G677C); format: biochemical; settings: 33P-ATP, 120 min, room temperature
Experimental: (§2) Inhibition of protein kinase activity by compounds was carried out on the Radio-tagged HotSpot kinase experimental platform of Reaction Biology Corporation. Fresh reaction solution (20 mM HEPESpH 7.5, 10 mM MgCl2, 1 mM EGTA, 0.02% Brij35, 0.02 mg/ml BSA, 0.1 mM Na3VO4, 2 mM DTT, 1% DMSO) containing corresponding substrates was prepared, cofactor and kinase to be tested were added into the above solution and mixed gently. Echo550 pipetting system was used to add the test compound DMSO solution to each well (the blank control group was added with the corresponding volume of DMSO), then 33P-ATP (with a final specific activity of 0.01 μCi/μL) was added to start the reaction. The reaction solution was incubated at room temperature for 120 minutes.

[2] = target: TRKA (Homo sapiens (Human), UniProt P04629); experiment: Radio-tagged HotSpot kinase assay, TRKA;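 further: kinase activity measured through incorporation of 33P from labelled ATP into substrate, 120 min at room temperature, relative to a DMSO-only blank control, reported as inhibition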
Sequence of TRKA (P04629 33-796): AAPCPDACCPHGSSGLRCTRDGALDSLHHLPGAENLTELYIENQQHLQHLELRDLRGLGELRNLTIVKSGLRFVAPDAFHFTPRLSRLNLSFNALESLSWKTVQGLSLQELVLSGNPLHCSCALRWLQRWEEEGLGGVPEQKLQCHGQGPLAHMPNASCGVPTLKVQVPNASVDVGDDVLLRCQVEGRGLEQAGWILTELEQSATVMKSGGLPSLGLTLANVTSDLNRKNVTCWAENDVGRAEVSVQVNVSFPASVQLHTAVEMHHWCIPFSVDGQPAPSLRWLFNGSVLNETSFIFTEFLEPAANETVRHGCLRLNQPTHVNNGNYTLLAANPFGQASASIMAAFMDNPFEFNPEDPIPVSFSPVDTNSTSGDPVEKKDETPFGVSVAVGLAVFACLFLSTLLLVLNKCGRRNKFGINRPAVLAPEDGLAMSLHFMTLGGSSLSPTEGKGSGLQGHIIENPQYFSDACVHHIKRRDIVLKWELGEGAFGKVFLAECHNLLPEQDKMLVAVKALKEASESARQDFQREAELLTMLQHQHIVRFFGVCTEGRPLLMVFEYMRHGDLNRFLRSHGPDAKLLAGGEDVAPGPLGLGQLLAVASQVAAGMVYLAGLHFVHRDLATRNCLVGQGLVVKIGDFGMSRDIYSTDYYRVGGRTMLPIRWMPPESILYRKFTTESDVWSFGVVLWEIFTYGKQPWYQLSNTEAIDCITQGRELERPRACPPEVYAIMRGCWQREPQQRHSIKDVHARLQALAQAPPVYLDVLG
Experimental: as §2

[3] = target: TRKB (Homo sapiens (Human), UniProt Q16620); experiment: Radio-tagged HotSpot kinase assay, TRKB; format: biochemical; settings: 33P-ATP, 120 min, room temperature
Sequence of TRKB (Q16620 32-822): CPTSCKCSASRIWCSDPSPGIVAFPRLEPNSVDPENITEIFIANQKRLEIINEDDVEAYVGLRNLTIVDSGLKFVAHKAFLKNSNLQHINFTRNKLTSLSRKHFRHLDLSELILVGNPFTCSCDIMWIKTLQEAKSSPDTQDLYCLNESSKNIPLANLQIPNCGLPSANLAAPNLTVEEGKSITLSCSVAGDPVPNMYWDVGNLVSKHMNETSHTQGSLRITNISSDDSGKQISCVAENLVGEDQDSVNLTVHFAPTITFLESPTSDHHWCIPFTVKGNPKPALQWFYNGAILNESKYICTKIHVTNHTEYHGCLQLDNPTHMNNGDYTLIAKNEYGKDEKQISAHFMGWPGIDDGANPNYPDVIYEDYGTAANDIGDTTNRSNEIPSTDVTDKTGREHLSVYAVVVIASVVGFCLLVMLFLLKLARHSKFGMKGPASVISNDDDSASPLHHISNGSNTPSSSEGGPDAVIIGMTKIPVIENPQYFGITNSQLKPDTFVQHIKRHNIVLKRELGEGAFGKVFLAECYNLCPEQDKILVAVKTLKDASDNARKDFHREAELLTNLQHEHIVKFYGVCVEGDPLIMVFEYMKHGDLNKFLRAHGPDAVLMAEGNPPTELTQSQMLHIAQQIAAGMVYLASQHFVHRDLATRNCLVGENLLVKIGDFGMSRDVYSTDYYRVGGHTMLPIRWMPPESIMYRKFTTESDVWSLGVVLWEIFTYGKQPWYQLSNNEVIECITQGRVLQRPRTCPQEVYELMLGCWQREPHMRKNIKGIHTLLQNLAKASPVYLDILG
Experimental: as §2

[4] = target: ALK (Homo sapiens (Human), UniProt Q9UM73); experiment: Radio-tagged HotSpot kinase assay, ALK; format: biochemical; settings: 33P-ATP, 120 min, room temperature
Experimental: as §2

[5] = target: TRKC (Homo sapiens (Human), UniProt Q16288); experiment: Radio-tagged HotSpot kinase assay, TRKC; format: biochemical; settings: 33P-ATP, 120 min, room temperature
Sequence of TRKC (Q16288 32-839): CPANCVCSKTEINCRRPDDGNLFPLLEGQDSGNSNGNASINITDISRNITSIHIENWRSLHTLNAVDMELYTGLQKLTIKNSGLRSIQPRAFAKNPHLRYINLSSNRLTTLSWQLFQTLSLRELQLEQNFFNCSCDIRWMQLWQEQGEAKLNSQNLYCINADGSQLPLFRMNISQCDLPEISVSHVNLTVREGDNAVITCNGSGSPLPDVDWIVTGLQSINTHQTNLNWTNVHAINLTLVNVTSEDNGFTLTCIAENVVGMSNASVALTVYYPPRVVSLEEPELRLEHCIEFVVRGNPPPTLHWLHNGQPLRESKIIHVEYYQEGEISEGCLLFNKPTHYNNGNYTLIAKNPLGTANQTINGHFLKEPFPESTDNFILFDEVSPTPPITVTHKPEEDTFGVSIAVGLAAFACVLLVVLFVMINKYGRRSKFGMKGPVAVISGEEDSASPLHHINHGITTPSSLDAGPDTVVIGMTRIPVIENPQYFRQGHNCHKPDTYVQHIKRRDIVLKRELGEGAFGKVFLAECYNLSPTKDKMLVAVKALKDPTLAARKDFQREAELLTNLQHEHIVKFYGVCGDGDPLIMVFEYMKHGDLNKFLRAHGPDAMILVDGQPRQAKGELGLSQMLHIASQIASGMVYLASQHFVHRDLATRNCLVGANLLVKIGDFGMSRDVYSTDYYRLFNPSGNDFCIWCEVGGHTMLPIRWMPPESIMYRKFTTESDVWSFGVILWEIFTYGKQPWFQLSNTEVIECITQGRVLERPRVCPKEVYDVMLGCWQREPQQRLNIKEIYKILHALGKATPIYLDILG
Experimental: as §2

[6] = target: ROS1 (Homo sapiens (Human), UniProt P08922); experiment: Radio-tagged HotSpot kinase assay, ROS1
Sequence of ROS1 (P08922 28-2347): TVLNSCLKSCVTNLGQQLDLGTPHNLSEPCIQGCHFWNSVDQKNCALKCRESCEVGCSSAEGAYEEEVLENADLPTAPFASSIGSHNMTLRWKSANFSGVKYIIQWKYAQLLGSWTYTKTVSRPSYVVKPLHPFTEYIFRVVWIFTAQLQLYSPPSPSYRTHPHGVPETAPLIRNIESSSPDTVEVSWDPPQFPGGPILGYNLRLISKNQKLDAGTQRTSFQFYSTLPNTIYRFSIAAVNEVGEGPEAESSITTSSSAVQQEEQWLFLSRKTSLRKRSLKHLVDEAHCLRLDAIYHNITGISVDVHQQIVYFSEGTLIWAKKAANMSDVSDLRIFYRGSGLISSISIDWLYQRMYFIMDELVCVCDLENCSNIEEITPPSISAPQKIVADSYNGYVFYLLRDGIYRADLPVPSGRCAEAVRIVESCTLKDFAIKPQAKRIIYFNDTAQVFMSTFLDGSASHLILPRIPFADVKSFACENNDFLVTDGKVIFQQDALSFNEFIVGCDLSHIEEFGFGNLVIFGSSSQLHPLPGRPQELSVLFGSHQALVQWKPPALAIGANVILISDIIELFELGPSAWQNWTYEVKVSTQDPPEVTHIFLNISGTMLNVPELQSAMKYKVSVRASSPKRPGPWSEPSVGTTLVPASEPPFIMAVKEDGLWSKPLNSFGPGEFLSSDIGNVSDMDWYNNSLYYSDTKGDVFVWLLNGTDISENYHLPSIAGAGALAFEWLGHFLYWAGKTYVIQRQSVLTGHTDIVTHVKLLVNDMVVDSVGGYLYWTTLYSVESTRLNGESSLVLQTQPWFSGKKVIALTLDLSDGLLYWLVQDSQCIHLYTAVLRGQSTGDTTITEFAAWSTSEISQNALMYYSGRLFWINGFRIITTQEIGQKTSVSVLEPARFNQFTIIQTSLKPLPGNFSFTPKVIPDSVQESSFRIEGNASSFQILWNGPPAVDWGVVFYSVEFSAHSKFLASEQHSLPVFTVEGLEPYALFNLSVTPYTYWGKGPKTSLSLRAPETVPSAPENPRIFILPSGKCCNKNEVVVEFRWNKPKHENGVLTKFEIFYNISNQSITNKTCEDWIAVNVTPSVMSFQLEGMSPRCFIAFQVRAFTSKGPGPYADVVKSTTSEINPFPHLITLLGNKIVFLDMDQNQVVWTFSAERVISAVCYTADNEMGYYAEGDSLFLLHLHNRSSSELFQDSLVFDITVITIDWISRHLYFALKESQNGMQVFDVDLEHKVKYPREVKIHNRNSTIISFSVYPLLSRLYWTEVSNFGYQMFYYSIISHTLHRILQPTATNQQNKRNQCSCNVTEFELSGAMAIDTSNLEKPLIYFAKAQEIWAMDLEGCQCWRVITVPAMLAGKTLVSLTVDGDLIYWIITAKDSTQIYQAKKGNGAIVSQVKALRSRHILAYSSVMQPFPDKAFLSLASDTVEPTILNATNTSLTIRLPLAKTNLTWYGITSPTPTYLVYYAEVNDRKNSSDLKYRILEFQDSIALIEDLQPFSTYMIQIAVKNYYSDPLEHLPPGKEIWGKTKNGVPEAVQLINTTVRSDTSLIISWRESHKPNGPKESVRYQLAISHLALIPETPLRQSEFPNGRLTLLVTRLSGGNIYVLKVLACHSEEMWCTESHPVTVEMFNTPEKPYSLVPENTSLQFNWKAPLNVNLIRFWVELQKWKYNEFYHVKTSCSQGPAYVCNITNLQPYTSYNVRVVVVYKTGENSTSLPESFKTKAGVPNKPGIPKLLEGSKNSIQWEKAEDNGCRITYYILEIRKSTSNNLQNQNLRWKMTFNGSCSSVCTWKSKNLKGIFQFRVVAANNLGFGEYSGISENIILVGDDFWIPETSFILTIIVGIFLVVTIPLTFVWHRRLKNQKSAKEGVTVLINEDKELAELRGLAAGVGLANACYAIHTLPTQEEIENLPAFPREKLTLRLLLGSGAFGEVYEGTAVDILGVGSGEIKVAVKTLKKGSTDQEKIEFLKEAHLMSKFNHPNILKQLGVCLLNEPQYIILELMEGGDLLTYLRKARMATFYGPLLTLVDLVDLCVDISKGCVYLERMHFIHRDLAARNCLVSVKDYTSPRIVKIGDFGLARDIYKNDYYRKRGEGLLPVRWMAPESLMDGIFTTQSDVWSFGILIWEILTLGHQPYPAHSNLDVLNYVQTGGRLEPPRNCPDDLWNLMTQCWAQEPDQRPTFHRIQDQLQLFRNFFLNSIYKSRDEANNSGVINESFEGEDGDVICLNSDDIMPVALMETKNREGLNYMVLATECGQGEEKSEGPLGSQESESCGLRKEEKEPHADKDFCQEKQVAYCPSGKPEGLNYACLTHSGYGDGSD
Experimental: as §2

[7] = test system: Ba/F3-CD74-ROS1-G2032R; experiment: Inhibition of cell proliferation (CellTiter-Glo), Ba/F3-CD74-ROS1-G2032R; format: cell-based; settings: 72 hours;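 further: Ba/F3 cell line expressing the CD74-ROS1 fusion with G2032R mutation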
Experimental: (§1) The experiment of inhibiting cell proliferation by compounds was carried out in Hefei Zhongkeprecedo Biomedical Technology Co., Ltd. The Ba/F3 engineered cell line stably transfected with different kinase genes was recovered with RPMI 1640 medium (Biological Industries, Israel)+10% fetal bovine serum (Biological Industries, Israel)+1% double antibody (Penicillin Streptomycin solution, Coring, USA) and cultivated two generations. The logarithmic growth phase cell suspension was taken, and 2000 cells/well were inoculated on 96-well white cell culture plate (Corning 3917, NY, USA) with a volume of 95 μL per well. 5 μL of 20×DMSO solution of the compound to be tested was added into the culture plate containing 95 μL of cell suspension. The blank control group was added with corresponding volume of DMSO, mixed well, and incubated in a 5% CO2 incubator at 37° C. for 72 hours. CellTiter-Glo was used to detect cell viability.

[8] = test system: Ba/F3-LMNA-NTRK1; experiment: Inhibition of cell proliferation (CellTiter-Glo), Ba/F3-LMNA-NTRK1; format: cell-based; settings: 72 hours
Experimental: as §1

[9] = test system: Ba/F3-LMNA-NTRK1-G595R; experiment: Inhibition of cell proliferation (CellTiter-Glo), Ba/F3-LMNA-NTRK1-G595R; format: cell-based; settings: 72 hours
Experimental: as §1

[10] = test system: Ba/F3-CD74-ROS1; experiment: Inhibition of cell proliferation (CellTiter-Glo), Ba/F3-CD74-ROS1; format: cell-based; settings: 72 hours
Experimental: as §1

[11] = target: TRKA (G595R) (Homo sapiens (Human), UniProt P04629, G595R); experiment: Radio-tagged HotSpot kinase assay, TRKA (G595R)
Sequence of TRKA (G595R) (P04629 33-796 G595R): as the sequence (P04629 33-796) above, with G563R counted along it
Experimental: as §2

[12] = target: ROS1 (G2032R) (Homo sapiens (Human), UniProt P08922, G2032R); experiment: Radio-tagged HotSpot kinase assay, ROS1 (G2032R)
Sequence of ROS1 (G2032R) (P08922 28-2347 G2032R): as the sequence (P08922 28-2347) above, with G2005R counted along it
Experimental: as §2

[13] = target: ALK (G1202R) (Homo sapiens (Human), UniProt Q9UM73, G1202R); experiment: Radio-tagged HotSpot kinase assay, ALK (G1202R); format: biochemical; settings: 33P-ATP, 120 min, room temperature
Experimental: as §2

[14] = read-out: ROS1 (G2032R) (IC50/nM), 33P-ATP, 120 min, room temperature
[15] = read-out: ROS1 (IC50/nM), 33P-ATP, 120 min, room temperature
[16] = read-out: TRKA (IC50/nM), 33P-ATP, 120 min, room temperature

Sequence of TRKA (G677C) (P04629 33-796 G667C limits assumed): as the sequence (P04629 33-796) above, with G635C counted along it

## COc1ccc(F)cc1[C@@H](C)Nc1ccn2ncc(C3=NOC(C)(c4ccc(F)cc4)N3)c2n1 (some centres unmarked) [Example 47]
[1]
  IC50: 50 to 500 nM

## C[C@@H](Nc1ccn2ncc(C3=NOC(C)(C)N3)c2n1)c1cc(F)cc(F)c1 [Example 27]
[2]
  IC50: 0.5 to 5 nM
[3]
  IC50: 0.5 to 5 nM
[4]
  IC50: 5 to 50 nM
[5]
  IC50: 0.5 to 5 nM
[6]
  IC50: 0.5 to 5 nM

## CCCC1(C)NC(c2cnn3ccc(N[C@H](C)c4cc(F)ccc4OC)nc23)=NO1 (some centres unmarked) [Example 19]
[7]
  IC50: 140 nM

## COc1ccc(F)cc1[C@H](C)Nc1ccn2ncc(C3=NOC(C)(C)N3)c2n1 [Example 41]
[2]
  IC50: 50 to 500 nM

## C[C@@H](Nc1ccn2ncc(C3=NOC(C)(C)N3)c2n1)c1cc(F)cc(F)c1F [Example 13]
[8]
  IC50: 5.1 nM
[7]
  IC50: 45.9 nM
[9]
  IC50: 12.5 nM
[10]
  IC50: 5.2 nM

## CCOCC1(C)NC(c2cnn3ccc(N[C@H](C)c4cc(F)ccc4O)nc23)=NO1 (some centres unmarked) [Example 66]
[11]
  IC50: 0.5 to 5 nM
[2]
  IC50: 0.5 to 5 nM
[12]; [14]
  IC50: < 0.5 nM
[3]
  IC50: 0.5 to 5 nM
[5]
  IC50: < 0.5 nM
[6]; [15]
  IC50: < 0.5 nM

## C[C@@H](Oc1ccn2ncc(C3=NOC(C)(C)N3)c2n1)c1c(Cl)ccc(F)c1Cl [Example 9]
[8]
  IC50: 100 nM
[7]
  IC50: 155 nM
[3]
  IC50: 0.5 to 5 nM
[4]
  IC50: 50 to 500 nM
[9]
  IC50: 890 nM
[10]
  IC50: 26.2 nM
[1]
  IC50: 50 to 500 nM

## C[C@@H](Nc1ccn2ncc(C3=NOC(C)(C)N3)c2n1)c1cc(F)ccc1Br [Example 23]
[11]
  IC50: 5 to 50 nM
[2]
  IC50: 0.5 to 5 nM
[12]
  IC50: 0.5 to 5 nM
[3]
  IC50: 0.5 to 5 nM
[13]
  IC50: 5 to 50 nM
[1]
  IC50: 5 to 50 nM
[5]
  IC50: 0.5 to 5 nM
[6]
  IC50: 0.5 to 5 nM

## C[C@H](Nc1ccn2ncc(C3=NOC(C)(C)N3)c2n1)c1cc(F)ccc1Br [Example 24]
[2]; [16]
  IC50: > 500 nM

## C[C@@H](Nc1ccn2ncc(C3=NCC(C)(C)N3)c2n1)c1cc(F)ccc1F [Example 65]
[11]
  IC50: 0.5 to 5 nM
[2]
  IC50: 0.5 to 5 nM
[12]; [14]
  IC50: < 0.5 nM
[3]
  IC50: 0.5 to 5 nM
[5]
  IC50: < 0.5 nM
[6]; [15]
  IC50: < 0.5 nM

## CC(Nc1ccn2ncc(C3=NOC(C)(C)N3)c2n1)c1ccc(F)cc1 (racemic) [Example 25 racemate]
[2]
  IC50: 50 to 500 nM

## COc1ccc(F)cc1[C@@H](C)Nc1ccn2ncc(C3=NOC4(CCOCC4)N3)c2n1 [Example 46]
[1]
  IC50: 5 to 50 nM

## Cc1ccc(F)cc1[C@H](C)Nc1ccn2ncc(C3=NOC(C)(C)N3)c2n1 [Example 43]
[2]
  IC50: 50 to 500 nM

## CCCCC1NC(c2cnn3ccc(N[C@H](C)c4cc(F)ccc4O)nc23)=NO1 (some centres unmarked) [Example 69]
[11]; read-out: TRKA (G595R) (IC50/nM), 33P-ATP, 120 min, room temperature
  IC50: < 0.5 nM
[2]; [16]
  IC50: < 0.5 nM
[12]; [14]
  IC50: < 0.5 nM
[3]
  IC50: < 0.5 nM
[5]
  IC50: < 0.5 nM
[6]; [15]
  IC50: < 0.5 nM

## C[C@@H](Nc1ccn2ncc(C3=NOC(C)(C)N3)c2n1)c1cc(F)ccc1OCC(F)(F)F [Example 3]
[8]
  IC50: 2.1 nM
[7]
  IC50: 10.3 nM
[9]
  IC50: 3.3 nM
[10]
  IC50: 2.8 nM

## COc1ccc(OC)c([C@@H](C)Nc2ccn3ncc(C4=NOC(C)(C)N4)c3n2)c1 [Example 29]
[9]
  IC50: 387 nM

## C[C@@H](Nc1ccn2ncc(C3=NOC(C)(C)N3)c2n1)c1ccccc1Cl [Example 26]
[2]
  IC50: 0.5 to 5 nM
[3]
  IC50: 0.5 to 5 nM
[4]
  IC50: 5 to 50 nM
[5]
  IC50: 0.5 to 5 nM
[6]
  IC50: 0.5 to 5 nM

## [2H]C([2H])([2H])Oc1ccc(F)cc1[C@@H](C)Nc1ccn2ncc(C3=NOC(C)(C)N3)c2n1 [Example 4]
[11]
  IC50: 5 to 50 nM
[13]
  IC50: 5 to 50 nM
[4]
  IC50: 0.5 to 5 nM
[1]
  IC50: 5 to 50 nM

## COc1ccc(F)cc1[C@@H](C)Nc1ccn2ncc(C3=NOC4(CCCCC4)N3)c2n1 [Example 45]
[1]
  IC50: 5 to 50 nM

## C[C@@H](Nc1ccn2ncc(C3=NOC(C)(C)N3)c2n1)c1cc(F)ccc1C(F)(F)F [Example 33]
[8]
  IC50: 25.9 nM
[7]
  IC50: 120 nM
[9]
  IC50: 386 nM
[10]
  IC50: 15.7 nM
